In patent US9308215B2, “Avermectins and milbemycins as anti-mycobacterial agents” (priority 2013, dated 2016):
In brackets after ≈: the same amount, converted by molar mass. Like-named read-outs stand apart in the source and are kept apart here.

How the values were obtained:
E. coli = experiment: microbe, parasite or virus in culture; format: cell-based, Escherichia coli; details: strain O157:H7, WT
[1] = test system: representative Gram-positive and Gram-negative bacteria; format: cell-based
P. aeruginosa = experiment: microbe, parasite or virus in culture; format: cell-based, Pseudomonas aeruginosa; details: strain PA01 (H103), WT
A. baumannii = experiment: microbe, parasite or virus in culture; format: cell-based, Acinetobacter baumannii; details: strain ATCC 1960, WT
M. tuberculosis = experiment: microbe, parasite or virus in culture; format: cell-based, Mycobacterium tuberculosis; details: for MIC90: Mycobacterium tuberculosis
S. lividans = experiment: microbe, parasite or virus in culture; format: cell-based, Streptomyces lividans; details: strain 1326, WT
R. jostii = experiment: microbe, parasite or virus in culture; format: cell-based, Rhodococcus jostii; details: strain RHA1, WT
S. aureus = experiment: microbe, parasite or virus in culture; format: cell-based, Staphylococcus aureus; details: strain ATCC 25923, WT
M. smegmatis = experiment: microbe, parasite or virus in culture; format: cell-based, Mycobacterium smegmatis; details: strain mc^2155, WT
M. bovis BCG = experiment: microbe, parasite or virus in culture; format: cell-based, Mycobacterium bovis
K. rhizophila = experiment: microbe, parasite or virus in culture; format: cell-based, Kocuria rhizophila; details: WT
M. avium = experiment: MIC against mycobacterial species; format: cell-based, Mycobacterium avium
[2] = Dogs, 250 μg/kg oral; cited from earlier work
[3] = Humans, oral, cited from earlier work
M. aurum = experiment: MIC against mycobacterial species; format: cell-based; details: M. aurum
M. microti = experiment: microbe, parasite or virus in culture; format: cell-based
[4] = ivermectin: extra-label use; selamectin, moxidectin: therapeutic doses; cited from earlier work
M. intracellulare = experiment: MIC against mycobacterial species; format: cell-based
M. chelonae = experiment: MIC against mycobacterial species; format: cell-based; details: M. chelonae
[5] = single dose, cited from earlier work
[6] = mice; cited from earlier work
M. gordonae = experiment: MIC against mycobacterial species; format: cell-based; details: M. gordonae 324
M. phlei = experiment: MIC against mycobacterial species; format: cell-based; details: M. phlei
[7] = rats; cited from earlier work

CO[C@H]1C[C@H](O[C@H]2[C@H](C)O[C@@H](O[C@@H]3/C(C)=C/C[C@@H]4C[C@@H](C[C@]5(C=C[C@H](C)[C@@H](C6CCCCC6)O5)O4)OC(=O)[C@@H]4C=C(C)[C@@H](O)[C@H]5OC/C(=C\C=C\[C@@H]3C)[C@]54O)C[C@@H]2OC)O[C@@H](C)[C@@H]1O [Doramectin]
In vitro MIC90 (E. coli): >256 µg/mL
Inhibitory effects [1]: not observed
In vitro MIC90 (P. aeruginosa): >256 µg/mL
In vitro MIC90 (A. baumannii): >256 µg/mL
level of activity (M. tuberculosis; against all Mycobacterium species, MTT): lower levels of activity
In vitro MIC90 (M. tuberculosis; strain 1254, WT): 8 to 16 µg/mL
In vitro MIC90 (M. tuberculosis; strain CDC 1551, WT): 4 to 8 µg/mL
In vitro MIC90 (M. tuberculosis; strain Erdman, WT): 8 µg/mL
In vitro MIC90 (M. tuberculosis; strain H37Rv, WT): 8 µg/mL
In vitro MIC90 (S. lividans): >256 µg/mL
In vitro MIC90 (R. jostii): >256 µg/mL
In vitro MIC90 (S. aureus): >256 µg/mL
In vitro MIC90 (M. smegmatis): 128 µg/mL
In vitro MIC90 (M. bovis BCG; strain BCG Pasteur, WT): 8 µg/mL
In vitro MIC90 (K. rhizophila): >256 µg/mL

CO/N=C1\C[C@]2(C[C@@H]3C[C@@H](C/C=C(\C)C[C@@H](C)/C=C/C=C4\CO[C@@H]5[C@H](O)C(C)=C[C@@H](C(=O)O3)[C@]45O)O2)O[C@H](/C(C)=C/C(C)C)[C@H]1C [Moxidectin]
MIC (M. avium; Mycobacterium avium): > 256 µg/mL
MIC (M. avium; Mycobacterium avium, ATCC25291, M. avium ATCC 25291, read-out: MIC): > 128 µg/mL
MIC (M. avium; Mycobacterium avium, M. avium 715): > 256 µg/mL
MIC90 (E. coli; Escherichia coli, read-out: In vitro MIC90): > 256 µg/mL
AUC [2]: 11800 ng·h/mL
Cmax [2]: 234 ng/mL
T½ [2]: 25.9 days
AUC ([3]; 3 mg fast): 1442 ng·h/mL
Cmax ([3]; 3 mg fast): 22.4 ng/mL
T½ ([3]; 3 mg fast): 33.8 days
AUC ([3]; 9 mg fast): 3024 ng·h/mL
Cmax ([3]; 9 mg fast): 57.9 ng/mL
T½ ([3]; 9 mg fast): 34.6 days
AUC ([3]; 18 mg fast): 5856 ng·h/mL
Cmax ([3]; 18 mg fast): 141 ng/mL
T½ ([3]; 18 mg fast): 22 days
AUC ([3]; 36 mg fast): 10824 ng·h/mL
Cmax ([3]; 36 mg fast): 289 ng/mL
T½ ([3]; 36 mg fast): 20.2 days
AUC ([3]; 36 mg fed): 14976 ng·h/mL
Cmax ([3]; 36 mg fed): 296 ng/mL
T½ ([3]; 36 mg fed): 25.7 days
MIC (M. aurum; Mycolicibacterium aurum, read-out: MIC): 1 µg/mL (≈ 1.56 µM)
MIC (M. microti; M. microti 1601, read-out: MIC): 4 µg/mL (≈ 6.25 µM)
MIC (M. microti; M. microti 1608, read-out: MIC): 4 µg/mL (≈ 6.25 µM)
MIC (M. microti; M. microti Ov254, read-out: MIC): 4 µg/mL (≈ 6.25 µM)
MIC90 (P. aeruginosa; Pseudomonas aeruginosa, read-out: In vitro MIC90): > 256 µg/mL
toxicity in dogs lacking MDR1 P-glycoprotein / homozygous MDR1 mutation [4]: without any signs of toxicosis
MIC90 (A. baumannii; Acinetobacter baumannii, ATCC1960, read-out: In vitro MIC90): > 256 µg/mL
MIC90 (M. tuberculosis; ERDMAN, read-out: In vitro MIC90, strain Erdman, WT): 2 to 4 µg/mL (≈ 3.13 to 6.25 µM)
MIC90 (M. tuberculosis; read-out: In vitro MIC90, strain 1254, WT): 4 µg/mL (≈ 6.25 µM)
MIC90 (M. tuberculosis; read-out: In vitro MIC90, strain BC-DS1 (drug-susceptible)): 4 µg/mL (≈ 6.25 µM)
MIC90 (M. tuberculosis; read-out: In vitro MIC90, strain BC-DS3 (drug-susceptible)): 2 µg/mL (≈ 3.13 µM)
MIC90 (M. tuberculosis; read-out: In vitro MIC90, strain BC-DS4 (drug-susceptible)): 2 µg/mL (≈ 3.13 µM)
MIC90 (M. tuberculosis; read-out: In vitro MIC90, strain BC-DS5 (drug-susceptible)): 2 to 4 µg/mL (≈ 3.13 to 6.25 µM)
MIC90 (M. tuberculosis; read-out: In vitro MIC90, strain CDC 1551, WT): 2 µg/mL (≈ 3.13 µM)
MIC90 (S. lividans; Streptomyces lividans, read-out: In vitro MIC90): > 256 µg/mL
MIC (M. intracellulare; Mycobacterium intracellulare, M. intracellulare D673): > 256 µg/mL
MIC (M. intracellulare; Mycobacterium intracellulare, M. intracellulare FM): > 256 µg/mL
MIC (M. intracellulare; Mycobacterium intracellulare, M. intracellulare 1403 ATCC35761, read-out: MIC): 16 µg/mL (≈ 25 µM)
MIC (M. intracellulare; Mycobacterium intracellulare, M. intracellulare 1403 Trudeau, read-out: MIC): 32 µg/mL (≈ 50 µM)
MIC (M. chelonae; Mycobacteroides chelonae, read-out: MIC): 4 µg/mL (≈ 6.25 µM)
dose reported safe in humans ([5]; clinical studies): up to 36 mg
dose reported not safe in humans [5]: 54 mg
LD50 [6]: 84 mg/kg body weight
MIC90 (R. jostii; Rhodococcus jostii, read-out: In vitro MIC90): > 256 µg/mL
MIC90 (S. aureus; Staphylococcus aureus, ATCC25923, read-out: In vitro MIC90): > 256 µg/mL
MIC (M. gordonae; Mycobacterium gordonae, read-out: MIC): 4 µg/mL (≈ 6.25 µM)
MIC90 (M. smegmatis; Mycolicibacterium smegmatis, read-out: In vitro MIC90): 4 µg/mL (≈ 6.25 µM)
MIC90 (M. bovis BCG; Mycobacterium tuberculosis variant bovis BCG, BCG, read-out: In vitro MIC90): 4 µg/mL (≈ 6.25 µM)
MIC (M. phlei; Mycolicibacterium phlei, read-out: MIC): 8 µg/mL (≈ 12.5 µM)
MIC90 (K. rhizophila; Kocuria rhizophila, read-out: In vitro MIC90): > 256 µg/mL
LD50 [7]: 106 mg/kg body weight

Abamectin
MIC (M. avium; M. avium 702): >256 µg/mL
MIC (M. avium; M. avium 715): >256 µg/mL
MIC (M. aurum): 8 µg/mL
MIC (M. microti; M. microti 1601): 16 µg/mL
MIC (M. microti; M. microti 1608): 64 µg/mL
MIC (M. microti; M. microti Ov254): 256 µg/mL
MIC (M. intracellulare; M. intracellulare 1403 ATCC35761): 16 µg/mL
MIC (M. intracellulare; M. intracellulare 1403 Trudeau): 16 µg/mL
MIC (M. intracellulare; M. intracellulare D673): 32 µg/mL
MIC (M. intracellulare; M. intracellulare FM): 16 µg/mL
MIC (M. chelonae): 16 µg/mL
MIC (M. gordonae): 16 µg/mL
MIC (M. phlei): >256 µg/mL
